# Measured values from US20210181109A1 (FUJIFILM Corporation, priority 2018, published 2021).
# Like-named read-outs stand apart in the source and are kept apart here.
# Tests used:
# [1] = NAC depletion percent, HPLC-fluorescence detection
# Description: (§1) 1) To a 50 mL vessel, 11.6 mg (±0.1 mg) of NAC is weighed; to this, a 25 mL measuring pipet is used to add 20 mL of 100 mmol/L phosphate buffer (pH: 8.0); and the content is gently stirred using a test tube mixer to achieve dissolution (2 mmol/L). 2) To a 500 mL vessel, 149.5 mL of this buffer is added using a 50 mL measuring pipet; to this, 0.5 mL of the above-described 2 mmol/L NAC solution is added; and the content is mixed by inversion to achieve 300-fold dilution (6.667 μmon).
# (§2) The test substance undiluted solution is defined as an “undiluted solution”, and used. Incidentally, this “undiluted solution” may be appropriately diluted to, for example, 1/10, 1/100, or 1/1000, using an appropriate solvent, and the resultant solution may be used.
# (§3) Subsequently, the solution having the maximum dissolution concentration is defined as an “undiluted solution”, and tested. Incidentally, this “undiluted solution” may be appropriately diluted to, for example, 1/10, 1/100, or 1/1000, using an appropriate solvent, and the resultant solution may be used.
# (§4) The test substance is prepared at 1 mmol/L in any of solvents that are water, acetonitrile, acetone, and a 5 mass % dimethyl sulfoxide (DMSO)/acetonitrile solution and used as a test substance solution. As the solvent, a solvent in which the test substance dissolves at 1 mmol/L is used; when the test substance is soluble in a plurality of solvents, the solvent is selected in the following order of decreasing precedence: water, acetonitrile, acetone, and 5 mass % DMSO/acetonitrile.
# (§5) Test substance solutions are prepared on a 96-well plate (U96 PP-0.5 ML NATURAL, Thermo Fisher Scientific Inc. (NUNC)) mainly using a 12-channel pipette, and a reagent is added in accordance with the following formula.
# (§6) Nucleophilic reagent (NAC and NAL): 150 μL
# (§7) Test substance solution: 50 μL
# (§8) The plate is tightly sealed using a plate sealing (Resistant embossed seal, SHIMADZU GLC Ltd.), and stirred using a plate shaker (Titramax 100, Heidolph Instruments GmbH & CO. KG). The plate is subjected to spinning down using a centrifuge, and then to incubation at 25° C., for 24 hours, in a light-shielded state.
# (§9) After the incubation for 24 hours, the plate sealing is removed; to each sample, 50 µL of the reaction stopping solution is added to stop the reaction.
# (§10) The HPLC measurement conditions for the nucleophilic reagents are as follows.
# (§11) From the average values (each, n=3) of peak areas of the post-reaction unreacted NAC or NAL and the blank-test (after performing the reaction step without addition of the test substances) NAC or NAL, the following formula is used to calculate the depletion percent of NAC or NAL.
# (§12) NAC depletion percent (% depletion)=[1−(Average value of peak areas of post-reaction unreacted NAC/Average value of peak areas of blank-test (after performing the reaction step without addition of the test substances) NAC)]×100
# (§13) The average value of peak areas of the post-reaction unreacted NAC is the average value of areas obtained by measuring three times post-reaction unreacted NAC. The average value of peak areas of blank-test (after performing the reaction step without addition of the test substances) NAC is the average value of areas obtained by measuring three times blank-test (after performing the reaction step without addition of the test substances) NAC.
# (§14) The reactions were each performed on a 96-well plate, and the number of samples of each case was set to n=3. In addition, as controls, reaction solutions including the solvent alone were prepared. The reaction solutions were prepared so as to have a NAC or NAL concentration of 5 μmon. To the reaction solutions after the lapse of 24 hours, a trifluoroacetic acid (TFA) aqueous solution was added such that the final concentration became 0.5% (v/v) TFA. Subsequently, HPLC was performed for measurements by two detection methods that were light absorption detection using a photodiode array (PDA) detector, and fluorescence detection using a fluorescence detector.
# [2] = NAL depletion percent, HPLC-fluorescence detection
# Description: as §1, with “12.6” for “11.6”, “NAL” for “NAC”, “10.2);” for “8.0);”, “mixture” for “mixer”, “mmol/L NAL solution).” for “mmol/L).”, “μmol/L).” for “μmon).”
# as §2, §3, §4, §5, §6, §7, §8, §9, §10, §11
# (§15) NAL depletion percent (% depletion)=[1−(Average value of peak areas of post-reaction unreacted NAL/Average value of peak areas of blank-test (after performing the reaction step without addition of the test substances) NAL)]×100
# (§16) The average value of peak areas of post-reaction unreacted NAL is the average value of areas obtained by measuring three times post-reaction unreacted NAL. The average value of peak areas of blank-test (after performing the reaction step without addition of the test substances) NAL is the average value of areas obtained by measuring three times blank-test (after performing the reaction step without addition of the test substances) NAL.
# as §14
# [3] = Average score of NAC and NAL depletion and prediction of skin allergenicity, fluorescence method; conditions: for Average score: test substance solution 1 mmol/L; for determination of skin allergenicity from average score: criterion […]
# Description: (§17) The average value (Average Score) of NAC and NAL depletion percents is calculated. In the resultant value, the second decimal place is rounded off.
# (§18) Average value (Average Score) of NAC and NAL depletion percents=(NAC depletion percent+NAL depletion percent)/2
# (§19) The depletion percent of at least one of NAC or NAL or the average score of the depletion percents of NAC and NAL is calculated, and whether or not the test substances are “allergenic substances” or “non-allergenic substances” is determined:
# (§20) (1) in a case of performing evaluation based on the average value of the depletion percent of NAC and the depletion percent of NAL,
# (§21) In the following Tables, S represents as being an allergenic substance and NS represents as being a non-allergenic substance.
# [4] = NAC depletion percent, HPLC-UV detection (281 nm)
# Description: as §1, §2, §3, §4, §5, §6, §7, §8, §9, §10, §11, §12, §13, §14
# [5] = NAL depletion percent, HPLC-UV detection (281 nm)
# Description: as §1, with “12.6” for “11.6”, “NAL” for “NAC”, “10.2);” for “8.0);”, “mixture” for “mixer”, “mmol/L NAL solution).” for “mmol/L).”, “μmol/L).” for “μmon).”
# as §2, §3, §4, §5, §6, §7, §8, §9, §10, §11, §15, §16, §14
# [6] = Average score of NAC and NAL depletion and prediction of skin allergenicity, UV method; conditions: for Average score: test substance solution 1 mmol/L; for Mean Depletion (%) (average score) / determination of skin allergenicity from average score: UV method; for determination of skin allergenicity from average score: criterion […]
# Description: as §17, §18, §19, §20, §21
# [7] = cited from earlier work
# [8] = single substance, test substance solution 1 mmol/L, fluorescence method
# [9] = single substance, fluorescence method
# [10] = single substance, test substance solution 1 mmol/L, Reference (UV method)
# [11] = single substance, Reference (UV method)
# [12] = single substance, fluorescence method, criterion average score […]
# [13] = single substance, Reference (UV method), criterion average score […]
# [14] = Fluorescence method, non-allergenic substance
# [15] = Reference (UV method), non-allergenic substance
# [16] = Fluorescence method, skin allergenicity prediction
# [17] = Reference (UV method), skin allergenicity prediction
# [18] = 1/1 (undiluted solution), fluorescence method, 25° C. 24 hours
# [19] = 1/10 diluted solution, fluorescence method
# [20] = 1/1 (undiluted solution), fluorescence method
# [21] = 1/1 (undiluted solution), UV method
# [22] = 1/10 diluted solution, UV method
structure (smiles),measurement,setting,value
"O=c1[nH]sc2ccccc12 [1,2-Benzisothiazolin-3-one]",NAC depletion (%),[1]; [8],98.8%
same,NAL depletion (%),[2]; [8],0.2%
same,Prediction result,[3],S (key: S represents as being an allergenic substance; NS represents as being a non-allergenic substance)
same,Average score,[3]; [9],49.5%
same,NAC depletion (%),[4]; [10],100.0%
same,NAL depletion (%),[5]; [10],0.4%
same,Prediction result,[6],S (key: S represents as being an allergenic substance; NS represents as being a non-allergenic substance)
same,Average score,[6]; [11],50.2%
same,EC3 (%),[7]; in vivo,2.3%
CCC(=O)C=Cc1ccc(OC)cc1 [1-(4-Methoxyphenyl)-1-penten-3-one],NAC depletion (%),[1]; [8],1.2%
same,NAL depletion (%),[2]; [8],0.4%
same,Prediction result,[3]; [12],NS (NS represents as being a non-allergenic substance)
same,Average score,[3]; [9],0.8%
same,NAC depletion (%),[4]; [10],1.6%
same,NAL depletion (%),[5]; [10],4.2%
same,Prediction result,[6]; [13],NS (NS represents as being a non-allergenic substance)
same,Average score,[6]; [11],2.9%
same,EC3 (%),"[7]; known values, LLNA-test-based classification, − for non-allergenic substances",9.3%
CCCCO [1-Butanol],NAC depletion (%),[1]; [14],2.1%
same,NAL depletion (%),[2]; [14],0.3%
same,NAC depletion (%),[4]; [15],0.1%
same,NAL depletion (%),[5]; [15],0.8%
same,EC3 (%),[7]; in vivo,−
C=O [Formaldehyde],Prediction result,[3],S (key: S represents as being an allergenic substance; NS represents as being a non-allergenic substance)
same,Prediction result,[6],S (key: S represents as being an allergenic substance; NS represents as being a non-allergenic substance)
same,EC3 (%),[7]; in vivo,0.61%
CC(O)CO (centres unmarked) [Propylene glycol],NAC depletion (%),[1]; [14],0.7%
same,NAL depletion (%),[2]; [14],5.0%
same,Prediction result,[3]; [16],NS (NS represents as being a non-allergenic substance)
same,NAC depletion (%),[4]; [15],0.1%
same,NAL depletion (%),[5]; [15],2.2%
same,Prediction result,[6]; [17],NS (NS represents as being a non-allergenic substance)
CCCOC(=O)c1ccc(O)cc1 [Propylparaben],NAC depletion (%),[1]; [14],0.5%
same,NAL depletion (%),[2]; [14],4.4%
same,NAC depletion (%),[4]; [15],0.1%
same,NAL depletion (%),[5]; [15],1.9%
same,EC3 (%),[7]; in vivo,−
O=C(O)c1ccc(O)c(O)c1 [Protocatechuic acid],NAC depletion (%),[1]; [18],58.1%
same,NAC depletion (%),[1]; [19],27.3%
same,NAL depletion (%),[2]; [18],38.3%
same,NAL depletion (%),[2]; [19],11.5%
same,Mean Depletion (%) (average score),[3]; [20],48.2%
same,determination of skin allergenicity from average score,[3]; [20],having skin allergenicity
same,Mean Depletion (%) (average score),[3]; [19],19.4%
same,determination of skin allergenicity from average score,[3]; [19],having skin allergenicity
same,NAC depletion (%),[4]; [21],60.8%
same,NAC depletion (%),[4]; [22],30.1%
same,NAL depletion (%),[5]; [21],18.6%
same,NAL depletion (%),[5]; [22],11.9%
same,Mean Depletion (%) (average score),[6]; 1/1 (undiluted solution),39.7%
same,determination of skin allergenicity from average score,[6]; 1/1 (undiluted solution),having skin allergenicity
same,Mean Depletion (%) (average score),[6]; 1/10 diluted solution,21.0%
same,determination of skin allergenicity from average score,[6]; 1/10 diluted solution,having skin allergenicity
Oc1cccc(O)c1 [Resorcinol],NAC depletion (%),[1]; [8],0.8%
same,NAL depletion (%),[2]; [8],1.6%
same,Prediction result,[3]; [12],NS (NS represents as being a non-allergenic substance)
same,Average score,[3]; [9],1.2%
same,NAC depletion (%),[4]; [10],4.0%
same,NAL depletion (%),[5]; [10],2.2%
same,Prediction result,[6]; [13],NS (NS represents as being a non-allergenic substance)
same,Average score,[6]; [11],3.1%
O=C(O)c1ccccc1O [Salicylic acid],NAC depletion (%),[1]; [14],0.1%
same,NAL depletion (%),[2]; [14],4.3%
same,Prediction result,[3]; [16],NS (NS represents as being a non-allergenic substance)
same,NAC depletion (%),[4]; [15],0.0%
same,NAL depletion (%),[5]; [15],0.4%
same,Prediction result,[6]; [17],NS (NS represents as being a non-allergenic substance)
Nc1ccc(S(N)(=O)=O)cc1 [Sulfanilamide],NAC depletion (%),[1]; [14],0.5%
same,NAL depletion (%),[2]; [14],3.6%
same,Prediction result,[3]; [16],NS (NS represents as being a non-allergenic substance)
same,NAC depletion (%),[4]; [15],0.0%
same,NAL depletion (%),[5]; [15],1.4%
same,Prediction result,[6]; [17],NS (NS represents as being a non-allergenic substance)
Nc1ccc(S(=O)(=O)O)cc1 [Sulfanilic acid],NAC depletion (%),[1]; [14],0.0%
same,NAL depletion (%),[2]; [14],0.1%
same,Prediction result,[3]; [16],NS (NS represents as being a non-allergenic substance)
same,NAC depletion (%),[4]; [15],0.5%
same,NAL depletion (%),[5]; [15],0.4%
same,Prediction result,[6]; [17],NS (NS represents as being a non-allergenic substance)
COc1cc(C=O)ccc1O [Vanillin],NAC depletion (%),[1]; [14],2.0%
same,NAL depletion (%),[2]; [14],0.0%
same,Prediction result,[3]; [16],NS (NS represents as being a non-allergenic substance)
same,NAC depletion (%),[4]; [15],1.5%
same,NAL depletion (%),[5]; [15],1.9%
same,Prediction result,[6]; [17],NS (NS represents as being a non-allergenic substance)
"CC[C@H](CC[C@@H](C)[C@H]1CC[C@H]2[C@@H]3CC=C4C[C@@H](O)CC[C@]4(C)[C@H]3CC[C@]12C)C(C)C [β-sitosterol, β-Sitosterol]",NAC depletion (%),[1]; [18],0.0%
same,NAC depletion (%),[1]; [19],0.6%
same,NAL depletion (%),[2]; [18],0.1%
same,NAL depletion (%),[2]; [19],0.0%
same,Mean Depletion (%) (average score),[3]; [20],0.1%
same,determination of skin allergenicity from average score,[3]; [20],not having skin allergenicity
same,Mean Depletion (%) (average score),[3]; [19],0.3%
same,determination of skin allergenicity from average score,[3]; [19],not having skin allergenicity
same,NAC depletion (%),[4]; [21],0.0%
same,NAC depletion (%),[4]; [22],3.9%
same,NAL depletion (%),[5]; [21],0.0%
same,NAL depletion (%),[5]; [22],0.0%
same,Mean Depletion (%) (average score),[6]; 1/1 (undiluted solution),0.0%
same,determination of skin allergenicity from average score,[6]; 1/1 (undiluted solution),not having skin allergenicity
same,Mean Depletion (%) (average score),[6]; 1/10 diluted solution,1.9%
same,determination of skin allergenicity from average score,[6]; 1/10 diluted solution,not having skin allergenicity
